Consider ten compounds from patent publication US20070173787A1, “Thin-film nitinol based drug eluting stent” (priority 2005, published 2007).

Series [1] concerns human coronary artery smooth muscle cells. Description: Anti-proliferative activity in non-synchronized cultured human coronary artery smooth muscle cells stimulated with two percent fetal bovine serum. It is filed as cell-based. Conditions: for effect of addition on the anti-proliferative rapamycin dose response curve: mycophenolic acid zero to one thousand nanomolar (FIG. 52), cladribine zero to nine hundred nanomolar (FIG. 57). An excerpt: The multiple curves represent various concentrations of mycophenolic acid ranging from zero to one thousand nanomolar concentrations.
FIG. 58 illustrates, in graphical format, the anti-proliferative activity of cladribine in non-synchronized cultured human coronary artery smooth muscle cells stimulated with two percent fetal bovine serum.
The multiple curves represent various concentrations of cladribine ranging from zero to nine hundred nanomolar concentrations.

Series [2] in a line: In vivo release kinetics from stent coatings in porcine pharmacokinetics studies. The text has this:
The topcoat is two hundred micro grams.
The basecoat is applied to Bx Velocity® stents and implanted into Yorkshire pigs.
Another critical parameter for the performance of the thrombus resistance of a device coated with cilostazol is the duration of the drug release from the coating. This is of particular significance in the two weeks after device implantation. […] The purpose of the porcine PK study is to assess the local pharmacokinetics of a drug eluting stent at a given implantation time. Normally three stents are implanted in three different coronary arteries in a pig for a given time point and then retrieved for total drug recovery analysis. The stents are retrieved at predetermined time points; namely, 1, 3 and 8 days. The stents are extracted and the total amount of drug remaining on the stents is determined by analysis utilizing HPLC (high performance liquid chromatography) for total drug amount. The difference between the original amount of drug on the stent and the amount of drug retrieved at a given time represents the amount of drug released in that period. The continuous release of drug into surrounding arterial tissue is what prevents the neointimal growth and restenosis in the coronary artery. A normal plot represents the percentage of total drug released (%, y-axis) vs. time of implantation (day, x-axis). […] In this exemplary configuration, the stent 8600 is coated with two layers. The first layer 8602 comprises a combination of sirolimus, cilostazol and a copolymer matrix of EVA/BMA. The second layer or diffusion overcoat 8604 comprises only BMA. More specifically, in this embodiment, the first layer 8602 comprises a combination of sirolimus and cilastazol that is forty-five (45) percent by weight of the total weight of the first layer 8602 and an EVA/BMA copolymer matrix that is fifty-five (55) percent by weight of the total weight of the first layer 8602. The diffusion overcoat comprises one hundred (100 μg) micrograms of BMA.
Pigs are an established animal species for intravascular stent studies and accepted for such studies by the appropriate regulatory agencies. This in vivo study utilized male pigs of the species Sus Scrofa and strain Yoorkshire pigs. S.M.A.R.T.™ stents, available from Cordis Corporation, were placed into the iliac and femoral arteries, PALMAZ® GENESIS™ stents, available from Cordis Corporation, were placed in the renal arteries and CYPHER™ stents, available from Cordis Corporation, were placed in the coronary arteries.

Series [3] concerns elastase-induced abdominal aortic aneurysms. Description: Elastase-induced rat model of abdominal aortic aneurysm. It is filed as in vivo. Conditions: 15 mg/kg/day; for inhibition of aortic dilatation induced by elastase perfusion: vs saline, FIG. 77. The text has this: The following example is provided to assist in a further understanding of the present invention. The particular materials and conditions employed are intended to be further illustrative of the invention and are not limiting upon the reasonable scope thereof Male Wistar rats (350-400 g) were subjected to perfusion of an isolated segment of the infrarenal abdominal aorta with 50 units of porcine pancreatic elastase, using the method described by Anidjar et al. (Anidjar, S. Salzmann, J L, Generic, D, Lagneau, P, Camilleri, J P, and Michel, J B, “Elastase induced experimental aneurysms in rats,” Circulation 82:973-981 (1990); Halpern et al. (Halpern, V J. Liao, Nackman, G B, Gandhi, R H, Irizarry, E, Scholes, J V, Ramey, W G, and Tilson, M D, “The elastase infusion model of experimental aortic aneurysms: Synchrony of induction of endogenous protinases with matrix destruction and inflammatory cell response, “J. Vasc. Surg. […] Surg 23:336-346(1996)). This method is an accepted model for experimental induction of abdominal aortic aneurysms. The animals (n=6 rats in each group) were then treated with twice-daily subcutaneous injections of either saline vehicle (control), or various doses of doxycycline (Dox) or one of four different, non-antibiotic, chemically-modified tetracyclines (CMTs; CollaGenex, Inc., Newtown, Pa.). Aortic diameter (AD) was measured with microcalipers before and after elastase perfusion, and just prior to sacrifice on day 7. Abdominal aortic aneurysms were defined as an increase in final AD to at least twice that measured before perfusion (≥100% increase). Aortic tissues from two animals in each group were perfusion-fixed with 10% neutral buffered formalin, embedded in paraffin, and stained with Verhoeff-van Geisen (VVG) for elastin. Tissues from the remaining animals were extracted, normalized to total protein, and analyzed by gelatin substrate zymography as described (Thompson et al. 1995; Halpern et al. 1994; Petrinec 1996).

Series [4] relates to human coronary artery smooth muscle cells. Description: Anti-proliferative activity in synchronized cultured human coronary artery smooth muscle cells stimulated with two percent fetal bovine serum. In kind it is cell-based. The conditions noted are these: topotecan to 300 nanomolar (FIG. 64), etoposide to eight hundred nanomolar (FIG. 65), Panzem to 100 micromolar (FIG. 68). The text has this:
(§1) The multiple curves represent various concentrations of topotecan ranging from zero to three hundred nanomolar concentrations.
(§2) The multiple curves represent various concentrations of etoposide ranging from zero to eight hundred nanomolar concentrations.
The multiple curves represent various concentrations of Panzem® ranging from zero to 100 micromolar concentrations.

A short description of series [5]: Cell viability assay (cytotoxicity). In kind it is cell-based.
Text: as §1, §2

The nature of series [6]: Liquid formulations of water insoluble rapamycins: concentration (HPLC) and visual observation. In kind it is physicochemical. An excerpt:
In accordance with exemplary embodiments of the present invention, a series of liquid formulations were developed for the local or regional delivery of water insoluble compounds such as sirolimus and its analogs, including CCI-779, ABT-578 and everolimus, through weeping balloons and catheter injection needles. […] These liquid formulations increase the apparent solubility of the pharmacologically active but water insoluble compounds by two to four orders. of magnitude as compared to the solubility limits of the compounds in water. These liquid formulations rely on the use of a very small amount of organic solvents such as Ethanol (typically less than two percent) and a larger amount of safe-amphiphilic (of or relating to a molecule having-a polar; water soluble group attached to a non-polar, water insoluble […]) excipients such as polyethylene glycol (PEG 200, PEG 400) and vitamin E TPGS to enhance the solubility of the compounds. These liquid formulations of highly. water insoluble compounds are stable and readily flowable at room temperature. Certain excipients, such as Vitamin E TPGS and BHT may be utilized to enhance the storage stability of sirolimus compounds through their anti-oxidation properties. […]

Consider `Nc1nc(Cl)nc2c1ncn2[C@H]1C[C@H](O)[C@@H](CO)O1` [Cladribine, 2-chlorodeoxyadenosine], for which the “inhibition of human coronary artery smooth muscle cell proliferation” value in series [1] (FIG. 58) is “completely inhibits”. In addition, the “effect of addition on the anti-proliferative rapamycin dose response curve” value (from here on “effect of addition”) in series [1] is recorded as “potentiate the anti-proliferative activity of rapamycin”. In addition, the “in vivo elution from the polymeric stent coating, comparison” value in series [2] (EVA/BMA basecoat with rapamycin and cladribine, BMA topcoat, FIGS. 62, 63) was “elutes more rapidly than rapamycin”.

“4-dedimethylamino-12a-deoxytetracycline [CMT-7]”: in series [3], the “relative efficacy in suppressing aneurysmal dilatation compared to Dox at the same dose” value (from here on “relative efficacy”) stood at 92% and the “inhibition of aortic dilatation induced by elastase perfusion” value (shortened to “inhibition of aortic dilatation induced”) is given as “statistically significant”.

As for `COc1cc([C@@H]2c3cc4c(cc3[C@@H](O[C@@H]3O[C@@H]5CO[C@@H](C)O[C@H]5[C@H](O)[C@H]3O)[C@H]3COC(=O)[C@H]23)OCO4)cc(OC)c1O` [etoposide], the “effect of addition” value in series [4] was “increases the percent inhibition of rapamycin alone”. In addition, the “cytotoxicity in cell viability assay” value in series [5] (at concentrations up to ten micromolar) is recorded as “non-cytotoxic”.

Consider `COc1c(C)c2c(c(O)c1C/C=C(\C)CCC(=O)O)C(=O)OC2` [mycophenolic acid], for which the “effect of addition” value in series [1] is given as “potentiates the anti-proliferative activity of rapamycin”. Besides, in series [2] (EVA/BMA basecoat with rapamycin and mycophenolic acid, BMA topcoat, FIGS. 53, 54), the “in vivo release from the basecoat, comparison” value is on record as “elutes more completely over a shorter duration than the rapamycin”.

`C[C@H]1c2cccc(O)c2C(O)=C2C(=O)[C@]3(O)C(O)=C(C(N)=O)C(=O)C[C@@H]3[C@@H](O)[C@@H]21` [CMT-8, 6-α-deoxy-5-hydroxy-4-dedimethylaminotetracycline]: in series [3], the “relative efficacy” value was determined as 105% and the “inhibition of aortic dilatation induced” value is reported as “statistically significant”.

For the compound `CO[C@H]1C[C@@H]2CC[C@@H](C)[C@@](O)(O2)C(=O)C(=O)N2CCCC[C@H]2C(=O)O[C@H]([C@H](C)C[C@@H]2CC[C@@H](OC(=O)C(C)(CO)CO)[C@H](OC)C2)CC(=O)[C@H](C)/C=C(\C)[C@@H](O)[C@@H](OC)C(=O)[C@H](C)C[C@H](C)/C=C/C=C/C=C/1C` [CCl-779], in series [6] (ethanol (less than two percent), Vitamin E TPGS and water), the “concentration in the final solution (HPLC assay)” value came out at 15000 µg/mL.

With `CC1(O)c2c(Cl)ccc(O)c2C(=O)C2=C(O)C3(O)C(=O)C(C(N)=O)=C(O)CC3CC21` (centres unmarked) [CMT-4, 4-dedimethylamino-7-chlorotetra-cycline], in series [3], the “relative efficacy” value stood at 75% and the “inhibition of aortic dilatation induced” value is “did not reach statistical significance”.

Take `CC[C@@]1(O)C(=O)OCc2c1cc1n(c2=O)Cc2cc3c(CN(C)C)c(O)ccc3nc2-1` [topotecan]: the “effect of addition” value in series [4] is “potentiate the anti-proliferative activity of rapamycin”. Moreover, the “cytotoxicity in cell viability assay” value in series [5] (at concentrations up to one micromolar) is “non-cytotoxic”.

Take `NC(=O)C1=C(O)C[C@@H]2C[C@@H]3Cc4cccc(O)c4C(=O)C3=C(O)[C@]2(O)C1=O` [CMT-3, 6-demethyl-6-deoxy-4-dedimethylaminotetracycline]: in series [3], the “relative efficacy” value amounted to 92% and the “inhibition of aortic dilatation induced” value is recorded as “statistically significant”.

Turning to `CO[C@H]1C[C@@H]2CC[C@@H](C)[C@@](O)(O2)C(=O)C(=O)N2CCCC[C@H]2C(=O)O[C@H]([C@H](C)C[C@@H]2CC[C@@H](O)[C@H](OC)C2)CC(=O)[C@H](C)/C=C(\C)[C@@H](O)[C@@H](OC)C(=O)[C@H](C)C[C@H](C)/C=C/C=C/C=C/1C` [rapamycin], the “in vivo release rate, comparison” value in series [2] (PVDF basecoat with rapamycin and mycophenolic acid, PVDF topcoat, FIG. 56) is listed as “slower release rate than that of mycophenolic acid”. Further, the “peak elution release at three days” value is recorded as “greater than seventy-five” in series [2] (PVDF/HFP (60/40) and rapamycin basecoat with 167 microgram PVDF/HFP topcoat, curve 4902); “less than fifty” in series [2] (PVDF/HFP (60/40) and rapamycin basecoat with 490 microgram BMA topcoat, curve 4912). For the same compound, in series [2] (after eight (8) days of implantation, single layer sirolimus/cilostazol EVA/BMA coating with 100 μg BMA overcoat (FIG. 86), FIG. 84), the “drug remaining in the drug coating” value was around 80%. Besides, the “concentration relative to the solubility of sirolimus in water” value in series [6] (4 mg/ml PEG 200 formulation) is given as “four hundred to about one thousand”.
